These results are taken from patent US10780074B2, “Compounds and uses thereof” (Sunovion Pharmaceuticals Inc., priority 2017, dated 2020).

For one experiment, the system named is MES-induced seizures. The experiment can be described thus: Mouse Maximum Electroshock Assay (MES). The class given is in vivo. Conditions: male CF-1 mice, fewer than 4 animals tested, given as N/F. From the text: Mouse Maximum Electroshock Assay (MES)
Mouse Maximum Electroshock Assay (MES) is a model for generalized tonic-clonic seizures and provides an indication of a compound's ability to prevent seizure spread when all neuronal circuits in the brain are maximally active. These seizures are highly reproducible and are electrophysiologically consistent with human seizures. For all MES tests, 60 Hz of alternating current (50 mA in mice and 150 mA in rats) was delivered for 0.2 sec by corneal electrodes which had been primed with an electrolyte solution containing an anesthetic agent (0.5% tetracaine HCl). An animal was considered “protected” from MES-induced seizures upon abolition of the hindlimb tonic extensor component of the seizure. Initial screen for anticonvulsant activity in the MES was performed with N=4 male CF-1 mice/dose/time point. The default doses and time-points were 3 and 30 mg/kg at 0.25 and 0.5 hr following administration. Quantification of the ED50 was conducted at the time of peak effect (TPE). To determine the TPE, groups of N=4 mice were treated with the investigational compound at 0.25, 0.5, 1.0, 2.0 and 4.0 hrs prior to MES testing, or based on time-points from prior studies. […] Quantitation of the ED50 was conducted the same as described for mice above.

In experiment [1] the test system is behaviors of compound-treated mice. Description: Neuropharmacological Assay (SmartCube). The following applies: for minimal effective dose: Mus musculus, ip, 0.25 h, dose having 50% or more total activity in SmartCube, read-out: MED (minimal effective dose). Type of experiment: in vivo. The method, boiled down:
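Behavioral signatures were captured automatically by video, and each drug class received a probability for the best of three i.p. doses given 15 min pre-test (vehicle: Pharmasolve/PEG/propylene glycol). Potency is given as MED, the lowest mpk dose (typically 0.3–30) reaching 50% or more total activity.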

Setting [2] is: i.p. 15 min before behavioral test, most efficacious dose(s) of 3 doses.
Where [3] appears, read: SmartCube, i.p. 15 min before test, most efficacious dose(s).

Each structure is given as a SMILES string. Where a name gives a salt, the structure may show the parent alone. Read-outs that look alike come from different tables or passages of the source.

The minimal effective dose is the lowest level tested that produced the effect sought. For the molecule `CNC[C@H]1OCCc2c(-c3cnccn3)cccc21` (single isomer, unassigned) [Compound 81], the “Seizure protection at 30 mg/kg (animals protected/animals tested)” value in the experiment with MES-induced seizures was 3/3 animals tested. The minimal effective dose in experiment [1] (i.p.) is at most 3 mg/kg. In experiment [1] (setting [2]), the “AD: ADHD (probability that activity matches class)” value (shortened to “AD: ADHD”) is “++ (5% ≤ ++ <25%)”, the “AG: analgesic (probability that activity matches class)” value (“AG: analgesic” below) was “+ (LOQ ≤ + <5%)”, the “AX: anxiolytic (probability that activity matches class)” value (shortened to “AX: anxiolytic”) is listed as “++ (5% ≤ ++ <25%)” and the “CE: cognitive enhancer (probability that activity matches class)” value (from here on “CE: cognitive enhancer”) is recorded as “+ (LOQ ≤ + <5%)”. In experiment [1] (setting [2]), the “DP: anti-depressant (probability that activity matches class)” value (“DP: anti-depressant” for short) is reported as “++++ (50% ≤ ++++)”, the “MS: mood stabilizer (probability that activity matches class)” value (from here on “MS: mood stabilizer”) is reported as “+ (LOQ ≤ + <5%)”, the “PS: anti-psychotic (probability that activity matches class)” value (from here on “PS: anti-psychotic”) is reported as “+ (LOQ ≤ + <5%)” and the “SD: sedative hypnotic (probability that activity matches class)” value (“SD: sedative hypnotic” for short) is reported as “+ (LOQ ≤ + <5%)”. Besides, the “UN: uncharacterized CNS activity (probability that activity matches class)” value (“UN: uncharacterized CNS activity” below) in experiment [1] (setting [2]) is on record as “+++ (25% ≤ +++ <50%)”.
In the case of `NC[C@H]1OCCCc2c(-c3ccccn3)cccc21` [Compound 159, (S)-(6-(pyridin-2-yl)-1,3,4,5-tetrahydrobenzo[c]oxepin-1-yl)methanamine hydrochloride salt], the minimal effective dose in experiment [1] (i.p.) was in the range of 10 to 30 mg/kg. In experiment [1] (setting [2]), the “AD: ADHD” value is reported as “+ (LOQ ≤ + <5%)”, the “AG: analgesic” value is “+ (LOQ ≤ + <5%)”, the “AX: anxiolytic” value was “+ (LOQ ≤ + <5%)” and the “CE: cognitive enhancer” value is recorded as “+ (LOQ ≤ + <5%)”. For the same molecule, in experiment [1] (setting [2]), the “DP: anti-depressant” value is “+ (LOQ ≤ + <5%)”, the “MS: mood stabilizer” value was “+ (LOQ ≤ + <5%)”, the “PS: anti-psychotic” value is “+ (LOQ ≤ + <5%)” and the “SD: sedative hypnotic” value is “+ (LOQ ≤ + <5%)”. Moreover, the “UN: uncharacterized CNS activity” value in experiment [1] (setting [2]) is on record as “+ (LOQ ≤ + <5%)”.
On to `CNC[C@H]1OCCc2c1cccc2-n1ccnc1` [Compound 183, (S)-1-(5-(1H-Imidazol-1-yl)isochroman-1-yl)-N-methylmethanamine hydrochloride salt], for which, in experiment [1], the minimal effective dose fell in the range of 3 to 10 mg/kg. In experiment [1] (setting [3]), the “AD: ADHD” value is reported as “+ (LOQ ≤ + <5%)”, the “AG: analgesic” value is recorded as “+ (LOQ ≤ + <5%)”, the “AX: anxiolytic” value is given as “+ (LOQ ≤ + <5%)” and the “CE: cognitive enhancer” value is recorded as “+ (LOQ ≤ + <5%)”. For the same molecule, in experiment [1] (setting [3]), the “DP: anti-depressant” value was “++++ (50% ≤ ++++)”, the “MS: mood stabilizer” value is recorded as “+ (LOQ ≤ + <5%)”, the “PS: anti-psychotic” value is given as “+ (LOQ ≤ + <5%)” and the “SD: sedative hypnotic” value is “+ (LOQ ≤ + <5%)”. For the same molecule, the “UN: uncharacterized CNS activity” value in experiment [1] (setting [3]) was “++ (5% ≤ ++ <25%)”.
For `NC[C@@H]1OCCc2c1cccc2-n1ccnc1` [Compound 184, (R)-(5-(1H-Imidazol-1-yl)isochroman-1-yl)methanamine hydrochloride salt], the minimal effective dose in experiment [1] lay in the range of 10 to 30 mg/kg. In addition, in experiment [1] (setting [3]), the “AD: ADHD” value is “+ (LOQ ≤ + <5%)”, the “AG: analgesic” value is listed as “+ (LOQ ≤ + <5%)”, the “AX: anxiolytic” value was “++ (5% ≤ ++ <25%)” and the “CE: cognitive enhancer” value is “+ (LOQ ≤ + <5%)”. Also, in experiment [1] (setting [3]), the “DP: anti-depressant” value is recorded as “+ (LOQ ≤ + <5%)”, the “MS: mood stabilizer” value was “+ (LOQ ≤ + <5%)”, the “PS: anti-psychotic” value is “+ (LOQ ≤ + <5%)” and the “SD: sedative hypnotic” value was “+ (LOQ ≤ + <5%)”. Moreover, the “UN: uncharacterized CNS activity” value in experiment [1] (setting [3]) is given as “+ (LOQ ≤ + <5%)”.
`NC[C@H]1OCCc2c1cccc2-n1ccnc1` [Compound 185, (S)-(5-(1H-Imidazol-1-yl)isochroman-1-yl)methanamine hydrochloride salt]: the minimal effective dose in experiment [1] lay in the range of 10 to 30 mg/kg. Further, in experiment [1] (setting [3]), the “AD: ADHD” value is recorded as “+ (LOQ ≤ + <5%)”, the “AG: analgesic” value is reported as “+ (LOQ ≤ + <5%)”, the “AX: anxiolytic” value is reported as “++ (5% ≤ ++ <25%)” and the “CE: cognitive enhancer” value is recorded as “+ (LOQ ≤ + <5%)”. In experiment [1] (setting [3]), the “DP: anti-depressant” value is recorded as “++ (5% ≤ ++ <25%)”, the “MS: mood stabilizer” value is given as “+ (LOQ ≤ + <5%)”, the “PS: anti-psychotic” value is given as “+ (LOQ ≤ + <5%)” and the “SD: sedative hypnotic” value is “+ (LOQ ≤ + <5%)”. The “UN: uncharacterized CNS activity” value in experiment [1] (setting [3]) was “+ (LOQ ≤ + <5%)”.
`CNC[C@@H]1OCCc2c1cccc2-n1cccn1` [Compound 186, (R)-1-(5-(1H-pyrazol-1-yl)isochroman-1-yl)-N-methylmethanamine]: the minimal effective dose in experiment [1] is 10 to 30 mg/kg. For the same molecule, in experiment [1] (setting [3]), the “AD: ADHD” value is given as “+ (LOQ ≤ + <5%)”, the “AG: analgesic” value is recorded as “+ (LOQ ≤ + <5%)”, the “AX: anxiolytic” value is listed as “++ (5% ≤ ++ <25%)” and the “CE: cognitive enhancer” value was “+ (LOQ ≤ + <5%)”. Besides, in experiment [1] (setting [3]), the “DP: anti-depressant” value was “+ (LOQ ≤ + <5%)”, the “MS: mood stabilizer” value is given as “+ (LOQ ≤ + <5%)”, the “PS: anti-psychotic” value is “+ (LOQ ≤ + <5%)” and the “SD: sedative hypnotic” value is reported as “+ (LOQ ≤ + <5%)”. In experiment [1] (setting [3]), the “UN: uncharacterized CNS activity” value is “+ (LOQ ≤ + <5%)”.
Regarding `CNC[C@H]1OCCc2c1cccc2-n1cccn1` [Compound 187, (S)-1-(5-(1H-pyrazol-1-yl)isochroman-1-yl)-N-methylmethanamine], in experiment [1], the minimal effective dose was in the range of 3 to 10 mg/kg. In experiment [1] (setting [3]), the “AD: ADHD” value is given as “++ (5% ≤ ++ <25%)”, the “AG: analgesic” value is on record as “+ (LOQ ≤ + <5%)”, the “AX: anxiolytic” value is reported as “+ (LOQ ≤ + <5%)” and the “CE: cognitive enhancer” value is “+ (LOQ ≤ + <5%)”. In addition, in experiment [1] (setting [3]), the “DP: anti-depressant” value is reported as “++++ (50% ≤ ++++)”, the “MS: mood stabilizer” value is “+ (LOQ ≤ + <5%)”, the “PS: anti-psychotic” value is recorded as “+ (LOQ ≤ + <5%)” and the “SD: sedative hypnotic” value is recorded as “+ (LOQ ≤ + <5%)”. Also, the “UN: uncharacterized CNS activity” value in experiment [1] (setting [3]) is recorded as “+ (LOQ ≤ + <5%)”.
As to `NC[C@@H]1OCCc2c1cccc2-n1cccn1` [Compound 188, (R)-(5-(1H-pyrazol-1-yl)isochroman-1-yl)methanamine hydrochloride salt], the minimal effective dose in experiment [1] is 10 to 30 mg/kg. In addition, in experiment [1] (setting [3]), the “AD: ADHD” value is “++ (5% ≤ ++ <25%)”, the “AG: analgesic” value is on record as “+ (LOQ ≤ + <5%)”, the “AX: anxiolytic” value is on record as “++ (5% ≤ ++ <25%)” and the “CE: cognitive enhancer” value was “+ (LOQ ≤ + <5%)”. In addition, in experiment [1] (setting [3]), the “DP: anti-depressant” value is recorded as “+ (LOQ ≤ + <5%)”, the “MS: mood stabilizer” value is on record as “+ (LOQ ≤ + <5%)”, the “PS: anti-psychotic” value is listed as “+ (LOQ ≤ + <5%)” and the “SD: sedative hypnotic” value is recorded as “+ (LOQ ≤ + <5%)”. The “UN: uncharacterized CNS activity” value in experiment [1] (setting [3]) was “++++ (50% ≤ ++++)”.
Take `NC[C@H]1OCCc2c1cccc2-n1cccn1` [Compound 189, (S)-(5-(1H-pyrazol-1-yl)isochroman-1-yl)methanamine hydrochloride salt]: the minimal effective dose in experiment [1] fell in the range of 10 to 30 mg/kg. In experiment [1] (setting [3]), the “AD: ADHD” value is given as “++ (5% ≤ ++ <25%)”, the “AG: analgesic” value is on record as “+ (LOQ ≤ + <5%)”, the “AX: anxiolytic” value is “++ (5% ≤ ++ <25%)” and the “CE: cognitive enhancer” value is on record as “+ (LOQ ≤ + <5%)”. In experiment [1] (setting [3]), the “DP: anti-depressant” value is listed as “++ (5% ≤ ++ <25%)”, the “MS: mood stabilizer” value is recorded as “+ (LOQ ≤ + <5%)”, the “PS: anti-psychotic” value is “+ (LOQ ≤ + <5%)” and the “SD: sedative hypnotic” value is “+ (LOQ ≤ + <5%)”. Besides, the “UN: uncharacterized CNS activity” value in experiment [1] (setting [3]) is given as “++++ (50% ≤ ++++)”.
